Source: ChEMBL document CHEMBL1128754, “The SAR of 6-(N-alkyl-N-acyl)-2-propyl-3-[(2-tetrazol-5-yl)biphen-4-yl)methyl]-quinazolinones as balanced affinity antagonists of the human AT1 and AT2 receptors” (Bioorg Med Chem Lett, 1995)
Where a chain is given by its changes, count along the chain named.

Columns and labels:
[1] = biological target: T1, Angiotensin II receptor (AT-1) type-1 (Rattus norvegicus, UniProt P29089+P25095); test: Binding affinity against AT1 receptor in rat adrenal tissue; format: tissue-based
T1 sequence (P29089 whole entry): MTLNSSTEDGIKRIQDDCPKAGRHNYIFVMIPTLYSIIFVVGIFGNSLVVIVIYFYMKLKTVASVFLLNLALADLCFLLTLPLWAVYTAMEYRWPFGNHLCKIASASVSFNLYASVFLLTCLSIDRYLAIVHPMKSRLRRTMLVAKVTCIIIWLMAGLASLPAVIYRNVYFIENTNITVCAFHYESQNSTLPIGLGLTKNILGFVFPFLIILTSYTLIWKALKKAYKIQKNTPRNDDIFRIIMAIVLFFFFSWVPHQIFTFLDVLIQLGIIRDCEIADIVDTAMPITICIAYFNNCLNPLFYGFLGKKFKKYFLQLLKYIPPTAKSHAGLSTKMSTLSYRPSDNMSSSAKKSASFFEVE
T1 sequence (P25095 whole entry): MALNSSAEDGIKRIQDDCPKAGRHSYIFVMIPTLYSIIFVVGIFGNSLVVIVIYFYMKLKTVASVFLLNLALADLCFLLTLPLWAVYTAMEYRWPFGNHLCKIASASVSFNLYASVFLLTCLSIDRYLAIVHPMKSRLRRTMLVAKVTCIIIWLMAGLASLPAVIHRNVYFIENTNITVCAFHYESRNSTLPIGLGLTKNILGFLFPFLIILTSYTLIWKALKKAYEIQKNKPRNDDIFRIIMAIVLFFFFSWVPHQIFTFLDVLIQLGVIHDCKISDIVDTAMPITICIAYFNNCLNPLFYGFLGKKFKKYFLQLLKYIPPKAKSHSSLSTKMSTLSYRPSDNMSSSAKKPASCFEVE

[2] = biological target: T2, Angiotensin II receptor (Homo sapiens) (UniProt P30556+P50052); test: Ratio of receptor binding affinity AT2/AT1 in human adrenal tissue in th+e presence of 2 mg/ml bovine serum albumin; format: protein assay
[3] = biological target: Angiotensin II receptor (Rattus norvegicus) (UniProt P29089+P25095+P35351); test: Ratio of receptor binding affinity AT2/AT1 in rat adrenal tissue
[4] = organism: Rattus norvegicus; conditions: dose 1 mg/kg; route intravenous
[5] = physchem; conditions: octanol/water
Description: Partition coefficient (logP)

[6] = biological target: T3, Type-1 angiotensin II receptor (Homo sapiens, UniProt P30556); test: biochemical
T3 sequence (P30556 whole entry): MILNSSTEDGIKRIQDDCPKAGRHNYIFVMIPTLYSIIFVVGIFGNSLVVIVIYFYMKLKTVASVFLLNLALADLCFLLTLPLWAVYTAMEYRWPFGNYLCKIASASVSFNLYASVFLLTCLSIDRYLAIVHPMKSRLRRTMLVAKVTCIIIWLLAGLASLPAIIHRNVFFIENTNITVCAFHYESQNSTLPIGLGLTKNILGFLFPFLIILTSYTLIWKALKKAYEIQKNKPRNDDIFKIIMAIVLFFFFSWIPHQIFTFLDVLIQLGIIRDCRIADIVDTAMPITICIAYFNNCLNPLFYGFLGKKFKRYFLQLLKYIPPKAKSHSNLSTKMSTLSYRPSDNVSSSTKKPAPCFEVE
Description: Binding affinity against AT1 receptor in human adrenal tissue

[7] = biological target: T4, Type-1 angiotensin II receptor (Oryctolagus cuniculus, UniProt P34976); test: biochemical
T4 sequence (P34976 whole entry): T3 sequence (P30556 whole entry) with I2M, V49A, I254V, I270V, R272H, R311K, T349S, A353V
Description: Binding affinity against AT1 receptor in rabbit aorta

[8] = biological target: T2, Angiotensin II receptor (Homo sapiens); test: Ratio of receptor binding affinity AT2/AT1 in human adrenal tissue in the presence of 2 mg/ml bovine serum albumin; format: protein assay
[9] = Ratio of receptor binding affinity of compound against rat midbrain tissue (AT2) to that of rabbit aorta (AT1); format: tissue-based
[10] = organism: Rattus norvegicus; conditions: dose 1 mg/kg; route oral
[11] = Bioavailability in dog (dose of 1.0 mg/kg i.v.) 0.5 hr; format: ADME, organism-based, Canis lupus familiaris; conditions: in vivo, iv

T2 sequence (P50052 whole entry, looked up, one chain of several): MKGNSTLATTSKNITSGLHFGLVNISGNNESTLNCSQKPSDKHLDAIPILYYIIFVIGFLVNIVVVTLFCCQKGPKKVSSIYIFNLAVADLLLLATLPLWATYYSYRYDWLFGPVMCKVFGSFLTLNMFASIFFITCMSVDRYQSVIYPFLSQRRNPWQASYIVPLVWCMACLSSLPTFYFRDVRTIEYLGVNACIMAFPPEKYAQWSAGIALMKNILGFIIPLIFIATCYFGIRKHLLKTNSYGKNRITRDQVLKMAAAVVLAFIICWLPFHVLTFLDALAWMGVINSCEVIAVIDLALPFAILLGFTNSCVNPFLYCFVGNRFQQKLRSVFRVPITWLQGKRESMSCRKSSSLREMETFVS

| SMILES | logP [5] | IC50 [7] [nM] | Duration [4] [h] | other results |
| --- | --- | --- | --- | --- |
| Cn1nnnc1-c1ccccc1-c1ccc(Cn2cnc3ccc(N(Cc4ccc(O)cc4)C(=O)c4ccccc4)cc3c2=O)cc1 | 3.6 | 4.9 |  | IC50 [1]: 0.5 nM; Ratio [2]: 0.8; Ratio [3]: 1.5; IC50 [6]: 6 nM |
| Cn1nnnc1-c1ccccc1-c1ccc(Cn2cnc3ccc(N(Cc4ccc(C(=O)O)cc4)C(=O)c4ccccc4)cc3c2=O)cc1 | 2.4 | 6.5 |  |  |
| Cn1nnnc1-c1ccccc1-c1ccc(Cn2cnc3ccc(N(CC(=O)c4ccco4)C(=O)c4ccccc4)cc3c2=O)cc1 |  | 18.5 |  |  |
| Cn1nnnc1-c1ccccc1-c1ccc(Cn2cnc3ccc(N(CCCC(=O)O)C(=O)c4ccccc4)cc3c2=O)cc1 | 2.3 | 9.5 |  |  |
| Cn1nnnc1-c1ccccc1-c1ccc(Cn2cnc3ccc(N(CCCCO)C(=O)c4ccccc4)cc3c2=O)cc1 |  | 2.6 |  |  |
| Cn1nnnc1-c1ccccc1-c1ccc(Cn2cnc3ccc(N(Cc4ccccc4)C(=O)c4ccccn4)cc3c2=O)cc1 | 3.8 | 9.3 |  |  |
| Cn1nnnc1-c1ccccc1-c1ccc(Cn2cnc3ccc(N(Cc4ccncc4)C(=O)c4ccccc4)cc3c2=O)cc1 | 3.4 | 5.5 |  |  |
| CCCCCN(C(=O)c1ccc(SC)cc1)c1ccc2ncn(Cc3ccc(-c4ccccc4-c4nnnn4C)cc3)c(=O)c2c1 |  | 6.4 |  |  |
| CCCCCN(C(=O)c1cccnc1)c1ccc2ncn(Cc3ccc(-c4ccccc4-c4nnnn4C)cc3)c(=O)c2c1 | 4.3 | 4.5 | <3 |  |
| Cn1nnnc1-c1ccccc1-c1ccc(Cn2cnc3ccc(N(C(=O)c4ccccc4)c4ccccc4)cc3c2=O)cc1 |  | 2.5 |  |  |
| Cn1nnnc1-c1ccccc1-c1ccc(Cn2cnc3ccc(N(Cc4ccccc4)C(=O)c4ccccc4)cc3c2=O)cc1 | 4.5 | 4.6 | <3 | IC50 [1]: 0.6 nM; Ratio [3]: 0.1 |
| CCCCCN(C(=O)c1ccc([S+](C)[O-])cc1)c1ccc2ncn(Cc3ccc(-c4ccccc4-c4nnnn4C)cc3)c(=O)c2c1 (stereo not given) | 4.3 | 21 | <3 |  |
| CCCCCN(C(=O)c1ccncc1)c1ccc2ncn(Cc3ccc(-c4ccccc4-c4nnnn4C)cc3)c(=O)c2c1 | 4.3 | 2.8 | >3 |  |
| Cn1nnnc1-c1ccccc1-c1ccc(Cn2cnc3ccc(N(Cc4ccccn4)C(=O)c4ccco4)cc3c2=O)cc1 | 3.2 | 7.5 | >3 | IC50 [1]: 2.1 nM; Ratio [2]: 0.3; Ratio [3]: 0.3; Duration [10]: <3 h; IC50 [6]: 10.6 nM |
| Cn1nnnc1-c1ccccc1-c1ccc(Cn2cnc3ccc(N(Cc4ccccc4)C(=O)c4ccncc4)cc3c2=O)cc1 | 3.7 | 3.4 |  |  |
| CCCCCN(C(=O)c1ccc(S(C)(=O)=O)cc1)c1ccc2ncn(Cc3ccc(-c4ccccc4-c4nnnn4C)cc3)c(=O)c2c1 | 4.4 | 7.2 |  |  |
| CCCCS(=O)(=O)N(Cc1ccccc1)c1ccc2ncn(Cc3ccc(-c4ccccc4-c4nnnn4C)cc3)c(=O)c2c1 |  | 23 |  |  |
| CCCCCN(C(=O)c1ccco1)c1ccc2ncn(Cc3ccc(-c4ccccc4-c4nnnn4C)cc3)c(=O)c2c1 |  | 3.2 | <3 |  |
| CCCCN(C(=O)c1ccc(F)cc1)c1ccc2ncn(Cc3ccc(-c4ccccc4-c4nnnn4C)cc3)c(=O)c2c1 | 4.7 | 2.3 |  |  |
| Cn1nnnc1-c1ccccc1-c1ccc(Cn2cnc3ccc(N(Cc4ccccc4)C(=O)c4cccnc4)cc3c2=O)cc1 | 3.7 | 11 |  |  |
| Cn1nnnc1-c1ccccc1-c1ccc(Cn2cnc3ccc(N(Cc4ccccn4)C(=O)c4ccncc4)cc3c2=O)cc1 | 2.7 | 9.7 | <3 | IC50 [1]: 2.9 nM; Ratio [2]: 2.3; Ratio [3]: 1.6; Duration [10]: <3 h; IC50 [6]: 4.4 nM |
| COC(=O)c1ccc(CN(C(=O)c2ccccc2)c2ccc3ncn(Cc4ccc(-c5ccccc5-c5nnnn5C)cc4)c(=O)c3c2)cc1 | 4.4 | 3.9 | <3 | IC50 [1]: 0.8 nM; Ratio [2]: 1.7; Ratio [3]: 1.9; IC50 [6]: 9.6 nM |
| Cn1nnnc1-c1ccccc1-c1ccc(Cn2cnc3ccc(N(Cc4ccccn4)C(=O)c4ccccc4)cc3c2=O)cc1 | 3.6 | 6.7 |  | IC50 [1]: 1.3 nM; Ratio [2]: 0.2; Ratio [3]: 0.5; IC50 [6]: 5.09 nM |
| CCCCC(=O)N(Cc1ccccc1)c1ccc2ncn(Cc3ccc(-c4ccccc4-c4nnnn4C)cc3)c(=O)c2c1 | 5.4 | 2.4 | >3 | Ratio [2]: 0.1; Duration [10]: >3 h; IC50 [6]: 5.7 nM |
| CCCCCN(C(=O)c1ccc(OCc2ccccc2)cc1)c1ccc2ncn(Cc3ccc(-c4ccccc4-c4nnnn4C)cc3)c(=O)c2c1 | > 5.7 | 8.4 |  |  |
| CCCCCN(Cc1ccccc1)c1ccc2ncn(Cc3ccc(-c4ccccc4-c4nnnn4C)cc3)c(=O)c2c1 |  | 20 |  |  |

The next lines start with results.

| logP [5] | IC50 [7] [nM] | SMILES | Duration [4] [h] | other results |
| --- | --- | --- | --- | --- |
| 4.2 | 1.2 | CCCCN(C(=O)c1ccc(O)cc1)c1ccc2ncn(Cc3ccc(-c4ccccc4-c4nnnn4C)cc3)c(=O)c2c1 | >3 | IC50 [1]: 0.3 nM; Ratio [2]: 6.8; Ratio [3]: 17; IC50 [6]: 4 nM |
| 2.9 | 2.2 | CCCCN(C(=O)c1ccc(OP(=O)([O-])[O-])cc1)c1ccc2ncn(Cc3ccc(-c4ccccc4-c4nnnn4C)cc3)c(=O)c2c1.[Na+].[Na+] | >3 | IC50 [1]: 3.9 nM; Ratio [8]: 10.9; Ratio [3]: 5.4; Ratio [9]: 1.9; Duration [10]: <3 h; IC50 [6]: 21.4 nM |
| 3.6 | 2.2 | COCCOCCN(C(=O)c1ccccc1)c1ccc2ncn(Cc3ccc(-c4ccccc4-c4nnnn4C)cc3)c(=O)c2c1 |  |  |
| 4.1 | 2.3 | CCOC(=O)CCCN(C(=O)c1ccccc1)c1ccc2ncn(Cc3ccc(-c4ccccc4-c4nnnn4C)cc3)c(=O)c2c1 |  |  |
| 4.3 | 1.9 | CCCN(C(=O)c1ccc(F)cc1)c1ccc2ncn(Cc3ccc(-c4ccccc4-c4nnnn4C)cc3)c(=O)c2c1 |  |  |
| 5 | 1.1 | CCCCCN(C(=O)c1ccccc1OC)c1ccc2ncn(Cc3ccc(-c4ccccc4-c4nnnn4C)cc3)c(=O)c2c1 |  |  |
| 3.3 | 1.3 | CC(=O)OCCCCN(C(=O)c1ccccc1)c1ccc2ncn(Cc3ccc(-c4ccccc4-c4nnnn4C)cc3)c(=O)c2c1 |  |  |
| 5.1 | 1.7 | CCCCCN(C(=O)c1ccccc1)c1ccc2ncn(Cc3ccc(-c4ccccc4-c4nnnn4C)cc3)c(=O)c2c1 | >3 | Ratio [2]: 1; bioavailability [11]: 73%; Duration [10]: >3 h; IC50 [6]: 6.9 nM |
| 5.2 | 1.7 | CCCCCN(C(=O)c1ccc(F)cc1)c1ccc2ncn(Cc3ccc(-c4ccccc4-c4nnnn4C)cc3)c(=O)c2c1 |  |  |
| 4.7 | 0.9 | CCCCCN(C(=O)c1ccc(O)cc1)c1ccc2ncn(Cc3ccc(-c4ccccc4-c4nnnn4C)cc3)c(=O)c2c1 | >3 | IC50 [1]: 0.5 nM; Ratio [2]: 5.8; Ratio [3]: 3.1; IC50 [6]: 4.9 nM |
| 3.9 | 1.6 | CCOCCN(C(=O)c1ccccc1)c1ccc2ncn(Cc3ccc(-c4ccccc4-c4nnnn4C)cc3)c(=O)c2c1 |  |  |
